Laboratory results published in ChEMBL document CHEMBL1201862, “PubChem BioAssay data set” (2004).
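Method: 48-hour compound exposure of cells in 96-well plates, five concentrations, linear interpolation of endpoints. At the GI50, growth is halved.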 Activity calls are given as the source filed them. Rule as the data show it: active = GI50 up to about 1.1 µM and inactive = higher.

Key:
Experiment in all cases: NCI tumour cell line growth inhibition, 48 h
[1] = tested on: ACHN
[2] = tested on: CAKI-1
[3] = tested on: HCC 2998
[4] = tested on: HCT-15
[5] = tested on: KM12
[6] = tested on: M14
[7] = tested on: MCF7
[8] = tested on: MDA-MB-231
[9] = tested on: MDA-MB-435
[10] = tested on: MOLT-4
[11] = tested on: Malme-3M
[12] = tested on: NCI-H226
[13] = tested on: NCI-H460
[14] = tested on: OVCAR-4
[15] = tested on: OVCAR-5
[16] = tested on: U-251
[17] = tested on: UACC-62
[18] = tested on: LOX IMVI

Row | SMILES | GI50 [1] | GI50 [2] | GI50 [3] | GI50 [4] [µM] | GI50 [5] | GI50 [6] | GI50 [7] | GI50 [8] | GI50 [9] | GI50 [10] | GI50 [11] | GI50 [12] | GI50 [13] | GI50 [14] | GI50 [15] | GI50 [16] | GI50 [17] | GI50 [18]
1 | Nc1ccc(C(=O)NN2C(=O)[C@H](Cl)C2c2ccc(Cl)cc2)cc1 (some centres undefined) | 0.789 µM (active) | 1.4 µM (inactive) | 1.65 µM (inactive) | 0.646 | 1.5 µM (inactive) | 1.58 µM (inactive) | 1.17 µM (inactive) | 1.81 µM (inactive) | 1.84 µM (inactive) | 1.09 µM (active) | 2.21 µM (inactive) | 0.714 µM (active) | 2.08 µM (inactive) | 0.615 µM (active) | 4.2 µM (inactive) | 1.22 µM (inactive) | 1.68 µM (inactive) | –
2 | CCCCN(CCCC)/C(=N\C#N)NCc1ccccc1 | 26.2 µM (inactive) | 22.5 µM (inactive) | 15.5 µM (inactive) | 15 | 21.3 µM (inactive) | 22.3 µM (inactive) | – | – | – | – | 32.4 µM (inactive) | 24.3 µM (inactive) | 13.9 µM (inactive) | 28.6 µM (inactive) | 26.4 µM (inactive) | 15.3 µM (inactive) | 16.3 µM (inactive) | 16.5 µM (inactive)
3 | CC1=CC(=O)NP(=O)(C23CC4CC(CC(C4)C2)C3)N1 (centres undefined) | > 100 µM (inactive) | > 100 µM (inactive) | – | > 100 | > 100 µM (inactive) | > 100 µM (inactive) | – | – | – | > 100 µM (inactive) | > 100 µM (inactive) | > 100 µM (inactive) | > 100 µM (inactive) | > 100 µM (inactive) | > 100 µM (inactive) | > 100 µM (inactive) | > 100 µM (inactive) | > 100 µM (inactive)
4 | O=C1OC(O)C(Oc2c(Cl)cccc2Cl)=C1Cl (centres undefined) | 17.2 µM (inactive) | 18.9 µM (inactive) | 23.3 µM (inactive) | 15.6 | 22.3 µM (inactive) | 17 µM (inactive) | – | – | – | 21.8 µM (inactive) | 26.5 µM (inactive) | 18.4 µM (inactive) | 15.5 µM (inactive) | – | 19.4 µM (inactive) | 13.8 µM (inactive) | 11.9 µM (inactive) | 17.9 µM (inactive)
5 | CC(=O)Nc1ccc(C(=O)NN2C(=O)C(Cl)C2c2ccc(O)cc2)cc1 (centres undefined) | > 100 µM (inactive) | > 100 µM (inactive) | – | > 100 | – | > 100 µM (inactive) | – | – | – | > 100 µM (inactive) | > 100 µM (inactive) | > 100 µM (inactive) | > 100 µM (inactive) | > 100 µM (inactive) | > 100 µM (inactive) | > 100 µM (inactive) | > 100 µM (inactive) | > 100 µM (inactive)
6 | CC1(C)CC(=O)C(CC2C(=O)c3ccccc3C2=O)C(=O)C1 | > 100 µM (inactive) | > 100 µM (inactive) | > 100 µM (inactive) | > 100 | > 100 µM (inactive) | > 100 µM (inactive) | – | – | – | > 100 µM (inactive) | > 100 µM (inactive) | > 100 µM (inactive) | > 100 µM (inactive) | > 100 µM (inactive) | > 100 µM (inactive) | > 100 µM (inactive) | > 100 µM (inactive) | > 100 µM (inactive)
7 | CCOC(=O)CNC1C(NC(C)=O)C(OC)OC2COC(c3ccccc3)OC21 (centres undefined) | > 100 µM (inactive) | > 100 µM (inactive) | > 100 µM (inactive) | > 100 | > 100 µM (inactive) | > 100 µM (inactive) | – | – | – | > 10 µM (inactive) | > 100 µM (inactive) | > 100 µM (inactive) | > 100 µM (inactive) | > 100 µM (inactive) | > 100 µM (inactive) | > 100 µM (inactive) | > 100 µM (inactive) | > 100 µM (inactive)
8 | OCCCCOC(c1ccccc1)(c1ccccc1)c1ccccc1 | > 100 µM (inactive) | > 100 µM (inactive) | > 100 µM (inactive) | > 100 | > 100 µM (inactive) | > 100 µM (inactive) | – | – | – | > 100 µM (inactive) | > 100 µM (inactive) | > 100 µM (inactive) | > 100 µM (inactive) | > 100 µM (inactive) | > 100 µM (inactive) | > 100 µM (inactive) | > 100 µM (inactive) | > 100 µM (inactive)
9 | O=C(CC1(O)C(=O)Nc2c(Cl)cc(Cl)cc21)c1ccccc1 (centres undefined) | > 100 µM (inactive) | > 100 µM (inactive) | – | 80.9 | – | > 100 µM (inactive) | – | – | – | 33.6 µM (inactive) | > 100 µM (inactive) | > 100 µM (inactive) | > 100 µM (inactive) | 39.2 µM (inactive) | > 100 µM (inactive) | – | 59.4 µM (inactive) | > 100 µM (inactive)
10 | CC(=O)NC(CCCCN)C(=O)NCc1ccccc1 (centres undefined) | > 100 µM (inactive) | > 100 µM (inactive) | > 100 µM (inactive) | > 100 | > 100 µM (inactive) | > 100 µM (inactive) | – | – | – | > 100 µM (inactive) | > 100 µM (inactive) | > 100 µM (inactive) | > 100 µM (inactive) | > 100 µM (inactive) | > 100 µM (inactive) | > 100 µM (inactive) | > 100 µM (inactive) | > 100 µM (inactive)
11 | CC(=O)Nc1ccccc1-c1cnc2ccccc2n1 | > 100 µM (inactive) | > 100 µM (inactive) | > 100 µM (inactive) | > 100 | > 100 µM (inactive) | > 100 µM (inactive) | – | – | – | > 100 µM (inactive) | > 100 µM (inactive) | > 100 µM (inactive) | > 100 µM (inactive) | > 100 µM (inactive) | > 100 µM (inactive) | > 100 µM (inactive) | > 100 µM (inactive) | > 100 µM (inactive)
12 | C=CCC(C)(C(=O)NCCC)C(=O)c1ccccc1O (centres undefined) | > 100 µM (inactive) | > 100 µM (inactive) | > 100 µM (inactive) | > 100 | > 100 µM (inactive) | > 100 µM (inactive) | – | – | – | > 100 µM (inactive) | > 100 µM (inactive) | > 100 µM (inactive) | > 100 µM (inactive) | > 100 µM (inactive) | – | > 100 µM (inactive) | > 100 µM (inactive) | –
13 | C=CCNC1=C(C(=O)OCC)C(=O)CO1 | > 100 µM (inactive) | > 100 µM (inactive) | > 100 µM (inactive) | > 100 | – | > 100 µM (inactive) | – | – | – | > 100 µM (inactive) | > 100 µM (inactive) | > 100 µM (inactive) | > 100 µM (inactive) | > 100 µM (inactive) | > 100 µM (inactive) | > 100 µM (inactive) | > 100 µM (inactive) | > 100 µM (inactive)
14 | COc1cc(Br)c(CC2(C#N)c3ccccc3C3C(N2C(=O)c2ccccc2)C3(Cl)Cl)cc1OC (centres undefined) | > 65.5 µM (inactive) | – | 20.9 µM (inactive) | > 65.5 | 23.1 µM (inactive) | 42.4 µM (inactive) | – | – | – | 2.03 µM (inactive) | > 65.5 µM (inactive) | > 65.5 µM (inactive) | 4.83 µM (inactive) | – | > 65.5 µM (inactive) | 39.4 µM (inactive) | 33.5 µM (inactive) | > 65.5 µM (inactive)
15 | CC(C(=O)c1ccccc1)C1(O)C(=O)Nc2ccccc21 (centres undefined) | > 100 µM (inactive) | > 100 µM (inactive) | > 100 µM (inactive) | > 100 | > 100 µM (inactive) | > 100 µM (inactive) | – | – | – | > 100 µM (inactive) | > 100 µM (inactive) | > 100 µM (inactive) | > 100 µM (inactive) | > 100 µM (inactive) | > 100 µM (inactive) | > 100 µM (inactive) | > 100 µM (inactive) | > 100 µM (inactive)
16 | C=CCNC(=S)N1CC(C)C(=O)Nc2cc(Cl)ccc21 (centres undefined) | > 100 µM (inactive) | > 100 µM (inactive) | – | > 100 | > 100 µM (inactive) | > 100 µM (inactive) | – | – | – | > 100 µM (inactive) | 82 µM (inactive) | 54.2 µM (inactive) | > 100 µM (inactive) | > 100 µM (inactive) | > 100 µM (inactive) | > 100 µM (inactive) | > 100 µM (inactive) | –
17 | c1ccc2[nH]c(-c3nc4ccccc4o3)nc2c1 | > 100 µM (inactive) | – | > 100 µM (inactive) | > 100 | > 100 µM (inactive) | > 100 µM (inactive) | – | – | – | > 100 µM (inactive) | > 100 µM (inactive) | 86.3 µM (inactive) | > 100 µM (inactive) | > 100 µM (inactive) | > 100 µM (inactive) | > 100 µM (inactive) | – | 66.1 µM (inactive)
18 | Cc1c(/C=N/NC(=O)c2ccccc2)c(=O)n(-c2ccccc2)n1C | > 100 µM (inactive) | – | > 100 µM (inactive) | > 100 | > 100 µM (inactive) | > 100 µM (inactive) | – | – | – | > 100 µM (inactive) | > 100 µM (inactive) | > 100 µM (inactive) | > 100 µM (inactive) | > 100 µM (inactive) | – | > 100 µM (inactive) | > 100 µM (inactive) | > 100 µM (inactive)
19 | CCc1cc(Cc2ccc(C)c(NC(=O)C(=O)C3C(=O)NC(=O)NC3=O)c2CC)cc(C)c1NC(=O)C(=O)C1C(=O)NC(=O)NC1=O | > 100 µM (inactive) | 41.8 µM (inactive) | > 100 µM (inactive) | > 100 | > 100 µM (inactive) | > 100 µM (inactive) | – | – | – | 93.5 µM (inactive) | > 100 µM (inactive) | – | > 100 µM (inactive) | > 100 µM (inactive) | > 100 µM (inactive) | > 100 µM (inactive) | > 100 µM (inactive) | > 100 µM (inactive)
20 | COc1ccc2nc(NC(=O)C(=O)C(C(=O)c3ccccc3-c3ccccc3)C3OC(=O)c4ccccc43)sc2c1 (centres undefined) | 26 µM (inactive) | – | 15.4 µM (inactive) | – | 21.6 µM (inactive) | 19 µM (inactive) | – | – | – | 19.5 µM (inactive) | 12.1 µM (inactive) | 5.27 µM (inactive) | 21.7 µM (inactive) | – | 18.7 µM (inactive) | 12.8 µM (inactive) | 17.3 µM (inactive) | 17 µM (inactive)
